Entries after “also recorded” stand apart in the source; their conditions may differ.
Test system: C57BL/6J mice
Assay: Jet-lag test: behavioural re-entrainment to 6 h phase advance of the LD cycle
Assay type: in vivo, mouse
Conditions: for days to total behavioural re-entrainment after the 6 h phase shift: mean ± SEM, n=5
Protocol: In all studies described below, male young-adult C57BL/6J mice (4 weeks old at the beginning of experiments) were used. Animals were exposed to a light-dark cycle (LD) 12:12 (lights on from 8 h to 20 h geographical time; light intensity at 200 lux; during dark period dim red light of 5 lux) in individual cages with food and water ad libitum and temperature (22±1° C.) and humidity (55%±5%) controlled. LD cycle was represented as zeitgeber times (ZT) where ZT0 represents the lights on and ZT12 lights off. When animals were exposed to constant darkness conditions (DD), circadian times (CT) were used as time point references, where CT12 corresponds to activity onset.
To evaluate the effects of the V1a antagonist trans-8-chloro-5-methyl-1-(4-pyridin-2-yloxycyclohexyl)-4,6-dihydro-[1,2,4]triazolo[4,3-a][1,4]benzodiazepine on light synchronization of behavioural circadian rhythms, a jet-lag protocol of 6 h phase shift was used. After being under a LD cycle 12 h/12 h (for at least 10 days), mice were exposed to a 6 -h phase advance of the light-dark cycle (first “jet-lag” test, advance shift) and to the administration of vehicle or 30 mg/kg of the V1a antagonist trans-8-chloro-5-methyl-1-(4-pyridin-2-yloxycyclohexyl)-4,6-dihydro-[1,2,4]triazolo[4,3-a][1,4]benzodiazepine. On the day of the shift, the time of lights off was phase-advanced by 6 h. Here we used three groups of animals: a sham group (Group 1, n=3), animals in which the cannula was introduced in the oral cavity without any solution delivery; a vehicle group (Group 2, n=4), which received vehicle, and a 30 mg/kg trans-8-chloro-5-methyl-1-(4-pyridin-2-yloxycyclohexyl)-4,6-dihydro-[1,2,4]triazolo[4,3-a][1,4]benzodiazepine group (Group 3, n=5). All manipulations were at ZT6 (6 h after lights on) on the last LD cycle before the 6 h phase advance.
In a second experiment, using naive animals, a second jet-lag test was evaluated. Thus, using a new group of male mice, the effects of 30 mg/kg trans-8-chloro-5-methyl-1-(4-pyridin-2-yloxycyclohexyl)-4,6-dihydro-[1,2,4]triazolo[4,3-a][1,4]benzodiazepine on the re-synchronization to a 6 h phase advance of the LD cycle were tested. Animals under a LD cycle 12 h/12 h (for at least 10 days) were exposed to a phase advance of 6 h of the LD cycle and to the administration of vehicle or 30 mg/kg of the V1a antagonist trans-8-chloro-5-methyl-1-(4-pyridin-2-yloxycyclohexyl)-4,6-dihydro-[1,2,4]triazolo[4,3 -a][1,4]benzodiazepine at ZT/CT6. Similarly to the previous experiment, three groups of animals were used: a sham group (Group 1, n=3), animals in which the cannula was introduced in the oral cavity without any solution delivery; a vehicle group (Group 2, n=4) which received vehicle, and a 30 mg/kg trans-8-chloro-5-methyl-1 -(4-pyridin-2-yloxycyclohexyl)-4,6-dihydro-[1,2,4]triazolo[4,3 -a][1,4]benzodiazepine group (Group 3, n=5).
The locomotor activity rhythms were measured using infra-red detectors on the top of the cages and/or running wheels.
Re-entrainment (jet-lag tests): For 6 h phase-shift (jet-lag protocol) the number of days after the shift for total re-entrainment was quantified, considering both the onset and offset of activity. The onsets and offsets of activity were identified automatically using ClockLab software. Thus, full resynchronization to a new LD cycle, after 6-hour phase shifts of the time of lights off, was considered when activity onset took place at the new time of lights off ±30 minutes. The number of days (transitory cycles) required to re-synchronize was calculated for each mouse. The speed of re-entrainment was evaluated calculating the onset of activity and the advance of it, in hours, daily. To evaluate the effects of manipulations on locomotion, the locomotor activity changes from 0 to 6 h after each treatment were quantified in 30 min intervals (see activity profiles determination).
Values in all experiments are means ±SEM. […]

## CN1Cc2cc(Cl)ccc2-n2c(nnc2[C@H]2CC[C@H](Oc3ccccn3)CC2)C1 [Example 1, trans-8-chloro-5-methyl-1-(4-pyridin-2-yloxycyclohexyl)-4,6-dihydro-[1,2,4]triazolo[4,3-a][1,4]benzodiazepine]
Both jet-lag experiments, 30 mg/kg
  re-entrainment of the circadian clock to a new LD cycle (overall conclusion): accelerates the re-entrainment
jet-lag test 1, 30 mg/kg at ZT6, 0 to 6 h after treatment
  locomotor activity induced by manipulations: not significantly different between groups
jet-lag test 1, 30 mg/kg at ZT6, first 5 days after the shift, 30 mg/kg
  daily adjustment of onset of activity to the LD cycle (speed of re-entrainment): much more rapid daily adjustment; also recorded: significantly faster re-entrainment
jet-lag test 1, 30 mg/kg oral at ZT6
  days to total behavioural re-entrainment after the 6 h phase shift: 3.2 ± 0.33 days
Second jet-lag test, naive mice, 30 mg/kg at ZT/CT6
  increase in locomotion induced by manipulations: not significantly different between groups
Second jet-lag test, naive mice, 30 mg/kg at ZT/CT6, first 4 days after the shift, 30 mg/kg
  daily adjustment of onset of activity to the LD cycle (speed of re-entrainment): much more rapid daily adjustment; also recorded: significantly faster re-entrainment
Second jet-lag test, naive mice, 30 mg/kg oral at ZT/CT6
  days to total behavioural re-entrainment after the 6 h phase shift: 3.4 ± 0.24 days

— patent US10265327B2, “V1A antagonists to treat phase shift sleep disorders” (Hoffmann-La Roche Inc., priority 2013, dated 2019)
